Experimental data from PubChem BioAssay AID192 (DTP/NCI, 2004).
Values joined by “and” are separate entries in the source; they are usually repeats but may differ in a detail not shown here. Equal values may be shown once. Toxic doses and inconclusive results are not listed.

Tested on: BDF1 mice, B16 melanoma ip, median survival T/C
Test: NCI In Vivo Anticancer Drug Screen. Data for tumor model B16 Melanoma (intraperitoneal) in B6D2F1 (BDF1) mice
Details: endpoint: median survival time, higher = longer survival
Outline: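 Tumor-bearing mice received test compound or vehicle. Survival or tumor size was then measured in both groups. The treated-group figure was divided by the control-group figure.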

[1] = dose: 100.0 mg/kg/injection, schedule: Q01DX009 (ip), vehicle: Klucel (hydroxypropylcellulose) (HPC)
[2] = dose: 200.0 mg/kg/injection, schedule: Q01DX009 (ip), vehicle: Klucel (hydroxypropylcellulose) (HPC)
[3] = dose: 400.0 mg/kg/injection, schedule: Q01DX009 (ip), vehicle: Klucel (hydroxypropylcellulose) (HPC)
[4] = dose: 25.0 mg/kg/injection, schedule: Q01DX009 (ip), vehicle: saline with Tween-80
[5] = dose: 50.0 mg/kg/injection, schedule: Q01DX009 (ip), vehicle: saline with Tween-80
[6] = dose: 100.0 mg/kg/injection, schedule: Q01DX009 (ip), vehicle: saline with Tween-80
[7] = dose: 12.5 mg/kg/injection, schedule: Q01DX009 (ip), vehicle: saline with Tween-80
[8] = dose: 12.5 mg/kg/injection, schedule: Q01DX009 (ip), vehicle: Klucel (hydroxypropylcellulose) (HPC)

CCCC(CCC)(C(=O)OCC)C(=O)OCC
T/C [1]: 92 % of control | T/C (dose: 100.0 mg/kg/injection, schedule: Q04DX003 (ip), vehicle: Klucel (hydroxypropylcellulose) (HPC)): 105 % of control | T/C [2]: 96 % of control | T/C (dose: 200.0 mg/kg/injection, schedule: Q04DX003 (ip), vehicle: Klucel (hydroxypropylcellulose) (HPC)): 97 % of control | T/C [3]: 92 % of control | T/C (dose: 400.0 mg/kg/injection, schedule: Q04DX003 (ip), vehicle: Klucel (hydroxypropylcellulose) (HPC)): 91 % of control

COc1cc2c(cc1OC)/C(=C\C(=O)N1CCCC1=O)CCC2
T/C [1]: 97 % of control | T/C [2]: 100 % of control | T/C [3]: 117 % of control

Clc1ccc2c(c1)-c1ccccc1C1=NCCN12
T/C (dose: 5.0 mg/kg/injection, schedule: Q01DX009 (ip), vehicle: saline): 108 % of control | T/C (dose: 10.0 mg/kg/injection, schedule: Q01DX009 (ip), vehicle: saline): 118 % of control

O=C(O)C(Cc1cc(I)c(O)c(I)c1)c1ccccc1 (centres undefined)
T/C (dose: 50.0 mg/kg/injection, schedule: Q01DX009 (ip), vehicle: Klucel (hydroxypropylcellulose) (HPC)): 100 % of control | T/C [1]: 109 % of control | T/C [2]: 100 % of control

O=C(O)C1CC(c2ccccc2)=NN1c1ccccc1 (centres undefined)
T/C (dose: 12.5 mg/kg/injection, schedule: Q01DX009 (ip), vehicle: water): 104 % of control | T/C (dose: 25.0 mg/kg/injection, schedule: Q01DX009 (ip), vehicle: water): 99 % of control and 100 % of control | T/C (dose: 50.0 mg/kg/injection, schedule: Q01DX009 (ip), vehicle: water): 99 % of control | T/C (dose: 100.0 mg/kg/injection, schedule: Q01DX009 (ip), vehicle: water): 97 % of control and 110 % of control | T/C (dose: 200.0 mg/kg/injection, schedule: Q01DX009 (ip), vehicle: water): 104 % of control and 110 % of control

CCCc1c(C)[nH]c2ccc(C)cc12
T/C [4]: 101 % of control | T/C [5]: 105 % of control | T/C [6]: 87 % of control

Cc1ccc(NC(=O)Oc2ccc(Br)cc2Br)c([N+](=O)[O-])c1
T/C [7]: 97 % of control | T/C [4]: 92 % of control | T/C [5]: 86 % of control

O=C(O)C1CC2C3CC(C(=O)O)C(C3)C2C1 (centres undefined)
T/C (dose: 100.0 mg/kg/injection, schedule: Q04DX003 (ip), vehicle: saline): 108 % of control | T/C (dose: 200.0 mg/kg/injection, schedule: Q04DX003 (ip), vehicle: saline): 104 % of control | T/C (dose: 400.0 mg/kg/injection, schedule: Q04DX003 (ip), vehicle: saline): 105 % of control

C=CC(=O)[O][Pb]([CH3])([CH3])[CH3]
T/C (dose: 0.75 mg/kg/injection, schedule: Q01DX009 (ip), vehicle: saline with Tween-80): 94 % of control | T/C (dose: 1.5 mg/kg/injection, schedule: Q01DX009 (ip), vehicle: saline with Tween-80): 95 % of control

CC(C)=CC1C(C(=O)OCc2ccc(C)cc2C)C1(C)C (centres undefined)
T/C (dose: 6.25 mg/kg/injection, schedule: Q01DX009 (ip), vehicle: saline with Tween-80): 99 % of control | T/C [7]: 104 % of control | T/C [4]: 110 % of control | T/C [5]: 103 % of control

CCN(CC)CCCC(C)Nc1ccnc(/C=C/c2ccc(Cl)cc2)c1 (centres undefined)
T/C [8]: 86 % of control | T/C (dose: 18.75 mg/kg/injection, schedule: Q04DX003 (ip), vehicle: saline): 86 % of control | T/C (dose: 25.0 mg/kg/injection, schedule: Q01DX009 (ip), vehicle: Klucel (hydroxypropylcellulose) (HPC)): 92 % of control | T/C (dose: 37.5 mg/kg/injection, schedule: Q04DX003 (ip), vehicle: saline): 93 % of control | T/C (dose: 75.0 mg/kg/injection, schedule: Q04DX003 (ip), vehicle: saline): 89 % of control

CN(C)/N=N/c1[nH]ncc1C(N)=O
T/C (dose: 50.0 mg/kg/injection, schedule: Q01DX009 (ip), vehicle: carboxymethylcellulose (CMC)): 105 % of control

CN1C2CCC1CC(OC(c1ccccc1)c1ccccc1)C2 (centres undefined)
T/C (dose: 1.56 mg/kg/injection, schedule: Q01DX009 (ip), vehicle: saline): 102 % of control | T/C (dose: 3.12 mg/kg/injection, schedule: Q01DX009 (ip), vehicle: saline): 107 % of control | T/C (dose: 6.25 mg/kg/injection, schedule: Q01DX009 (ip), vehicle: saline): 107 % of control | T/C (dose: 12.5 mg/kg/injection, schedule: Q01DX009 (ip), vehicle: saline): 110 % of control | T/C (dose: 25.0 mg/kg/injection, schedule: Q01DX009 (ip), vehicle: saline): 107 % of control

CC(C)N(CCCO)C(C)C
T/C [5]: 101 % of control | T/C [6]: 97 % of control

CCCCCCCC(O)CCCCC (centres undefined)
T/C [1]: 99 % of control | T/C [2]: 103 % of control | T/C [3]: 94 % of control

CCC(CC)(C[NH-])C[NH-].[Cl][Pt+2][Cl]
T/C (dose: 1.2 mg/kg/injection, schedule: Q01DX009 (ip), vehicle: carboxymethylcellulose (CMC)): 164 % of control | T/C (dose: 2.4 mg/kg/injection, schedule: Q01DX009 (ip), vehicle: carboxymethylcellulose (CMC)): 164 % of control

FC(F)(F)C(=Cc1nc2ccccc2s1)C(F)(F)F
T/C (dose: 6.25 mg/kg/injection, schedule: Q01DX009 (ip), vehicle: Klucel (hydroxypropylcellulose) (HPC)): 103 % of control | T/C [8]: 100 % of control
